{"source": "paper PMC7794356", "about": "“Streamlined copper defenses make Bordetella pertussis reliant on custom-made operon” (Communications Biology, 2021)", "molecular_target": "GorB (BP1729) (Bordetella pertussis, UniProt Q7VXM2)", "sequence (Q7VXM2 entry or part of it)": "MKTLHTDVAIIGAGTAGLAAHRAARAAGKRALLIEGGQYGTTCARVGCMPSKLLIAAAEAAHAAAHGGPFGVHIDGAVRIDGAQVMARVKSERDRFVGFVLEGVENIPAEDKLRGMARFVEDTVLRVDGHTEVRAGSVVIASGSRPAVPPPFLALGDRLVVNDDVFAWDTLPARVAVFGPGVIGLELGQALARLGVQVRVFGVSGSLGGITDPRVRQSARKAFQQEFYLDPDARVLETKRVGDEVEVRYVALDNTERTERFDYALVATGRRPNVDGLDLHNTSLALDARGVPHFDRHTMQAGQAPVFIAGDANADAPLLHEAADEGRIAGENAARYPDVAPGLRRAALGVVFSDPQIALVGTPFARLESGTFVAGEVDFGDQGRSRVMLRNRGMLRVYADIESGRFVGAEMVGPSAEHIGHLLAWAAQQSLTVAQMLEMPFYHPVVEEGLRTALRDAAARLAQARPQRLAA", "experiment": "NADPH oxidation followed at […] nm", "type": "biochemical", "settings": "0.3 mM NADPH, 8 mM GSH; GSSG generated in situ from GSH by H2O2 (0.1-2 mM); 0.1 M sodium/potassium phosphate pH 7.6, 25 °C"}
{"smiles": "NC(=O)C1=CN([C@@H]2O[C@H](COP(=O)(O)OP(=O)(O)OC[C@H]3O[C@@H](n4cnc5c(N)ncnc54)[C@H](OP(=O)(O)O)[C@@H]3O)[C@@H](O)[C@H]2O)C=CC1", "note": "[NADPH]", "values": [{"measurement": "NADPH oxidation followed at 340 nm", "value": "Oxidation of NADPH by recombinant GorB over time"}]}
